In paper PMC6112376, “Comprehensive Analyses and Prioritization of Tox21 10K Chemicals Affecting Mitochondrial Function by in-Depth Mechanistic Studies” (Environmental Health Perspectives, 2018):
Read-outs that look alike come from different tables or passages of the source.

Tests used:
[1] = system: Caenorhabditis elegans (Bristol N2); assay: C. elegans larval development and growth assay
HepG2 cells [2] = settings: cited from earlier work
[3] = system: Caenorhabditis elegans strain PE255; assay: In vivo C. elegans ATP status assay
[4] = system: isolated rat liver mitochondria; assay: Oxygen consumption, Clark-type oxygen electrode; assay type: biochemical
rat primary hepatocytes [5] = assay: MMP assay in rat primary hepatocytes; settings: Rattus norvegicus, Hepatocyte
[6] = system: Nrf2/ARE (ARE-bla HepG2 cells); assay: ARE β-lactamase reporter gene assay; assay type: cell-based, human; settings: 16 h incubation; mean±SD of three experiments
hNSC = assay: MMP assay in human neural stem cells (hNSC); assay type: cell-based; settings: Homo sapiens, Neural stem cell, 1 h, read-out: hNSC IC50 (MMP)
HepG2 cells [7] = assay: ROS-Glo hydrogen peroxide (ROS) assay; assay type: cell-based, human
[8] = system: HeLa cells expressing YFP-Parkin; assay: Parkin translocation assay; assay type: cell-based, human
rat primary hepatocytes [9] = system: rat primary hepatocytes
[10] = system: p53 (p53-bla HCT-116 cells); assay: p53 β-lactamase reporter gene assay; assay type: cell-based, human; settings: 16 h incubation; mean±SD of three experiments
HepG2 cells [11] = assay: cells; settings: Homo sapiens
HepG2 cells [12] = assay: Intracellular ATP content (cell viability) assay; assay type: cell-based, human

Compound: O=C(Nc1ccccc1)Nc1ccccc1 [Diphenylurea]
- EXT: mean difference in nematode size relative to plate controls ([1]; 0.5 µM): 0.0636
- EXT: mean difference in nematode size relative to plate controls ([1]; 1 µM): 0.005834
- EXT: mean difference in nematode size relative to plate controls ([1]; 5 µM): -0.06608
- EXT: mean difference in nematode size relative to plate controls ([1]; 10 µM): 0.006337
- EXT: mean difference in nematode size relative to plate controls ([1]; 25 µM): 0.05471
- EXT: mean difference in nematode size relative to plate controls ([1]; 50 µM): 0.1792
- EXT: mean difference in nematode size relative to plate controls ([1]; 75 µM): 0.1069
- EXT: mean difference in nematode size relative to plate controls ([1]; 100 µM): 0.0228
- effect on larval growth (in words) ([1]; 0.5–100μM): did not affect growth
- MMP assays efficacy (%) qHTS-HepG2 (HepG2 cells [2]): -111±9%
- IC50 (HepG2 cells [2]; read-out: MMP assays IC50 (µM) qHTS-HepG2): 1.6 ± 0.74 µM
- LUM: mean difference in luminescence (ATP content) relative to plate controls ([3]; 0.5 µM): 0.08612
- LUM: mean difference in luminescence (ATP content) relative to plate controls ([3]; 1 µM): 0.1632
- LUM: mean difference in luminescence (ATP content) relative to plate controls ([3]; 5 µM): 0.3729
- LUM: mean difference in luminescence (ATP content) relative to plate controls ([3]; 10 µM): 1.1516
- LUM: mean difference in luminescence (ATP content) relative to plate controls ([3]; 25 µM): 1.501
- LUM: mean difference in luminescence (ATP content) relative to plate controls ([3]; 50 µM): 1.222
- LUM: mean difference in luminescence (ATP content) relative to plate controls ([3]; 75 µM): 0.9702
- LUM: mean difference in luminescence (ATP content) relative to plate controls ([3]; 100 µM): 0.9744
- effect on ATP content (in words) ([3]; 0.5–100μM): statistically significant decreases in ATP content
- minimal effective concentration ([3]; Caenorhabditis elegans, read-out: LEC LUM: lowest effect concentration for luminescence, a measure of nematode ATP content): 10 µM
- Potential Mechanism [4]: Uncoupler at low concentrations (20 µM), and Uncoupler + inhibitor at high concentrations (100 µM)
- I-ADP, % of control (O2 consumption rate) ([4]; 0.8 µM): 97 (36.2) % of control
- I-sub, % of control (O2 consumption rate) ([4]; 0.8 µM): 105 (11.3) % of control
- II-ADP, % of control (O2 consumption rate) ([4]; 0.8 µM): 91 (57.2) % of control
- II-sub, % of control (O2 consumption rate) ([4]; 0.8 µM): 106 (19.6) % of control
- I-ADP, % of control (O2 consumption rate) ([4]; 4 µM): 93 (34.6) % of control
- I-sub, % of control (O2 consumption rate) ([4]; 4 µM): 104 (11.2) % of control
- II-ADP, % of control (O2 consumption rate) ([4]; 4 µM): 83 (52.5) % of control
- II-sub, % of control (O2 consumption rate) ([4]; 4 µM): 97 (18.0) % of control
- I-ADP, % of control (O2 consumption rate) ([4]; 20 µM): 96 (35.6) % of control
- I-sub, % of control (O2 consumption rate) ([4]; 20 µM): 144 (15.5) % of control
- II-ADP, % of control (O2 consumption rate) ([4]; 20 µM): 91 (57.6) % of control
- II-sub, % of control (O2 consumption rate) ([4]; 20 µM): 129 (23.9) % of control
- I-ADP, % of control (O2 consumption rate) ([4]; 100 µM): 38 (19.1) % of control
- I-sub, % of control (O2 consumption rate) ([4]; 100 µM): 167 (35.8) % of control
- II-ADP, % of control (O2 consumption rate) ([4]; 100 µM): 25 (15.1) % of control
- II-sub, % of control (O2 consumption rate) ([4]; 100 µM): 55 (19.1) % of control
- IC50 (rat primary hepatocytes [5]; 1 h, read-out: Rat hepatocytes IC50 (MMP)): 15.4 µM
- IC50 (rat primary hepatocytes [5]; read-out: MMP assays IC50 (µM) Rat Hepatocytes): 8.46 ± 2.39 µM
- ARE (HepG2) EC50 [6]: Inactive
- IC50 (hNSC): 12.1 µM
- ROS (HepG2) EC50 (HepG2 cells [7]): Inactive
- Parkin recruitment [8]: Inactive
- MMP assays efficacy (%) Rat Hepatocytes (rat primary hepatocytes [9]): -72±30%
- Rat hepatocytes (efficacy) (MMP) (rat primary hepatocytes [9]): 15.4±2.88 ( −117±8.21 ) %
- p53 (HCT-116) EC50 [10]: Inactive
- IC50 (HepG2 cells [11]; HepG2, 1 h, read-out: HepG2 IC50 Galactose (MMP)): 10.3 µM
- IC50 (HepG2 cells [11]; HepG2, 1 h, read-out: HepG2 IC50 Glucose (MMP)): 7.73 µM
- IC50 (HepG2 cells [11]; HepG2, read-out: MMP assays IC50 (µM) HepG2): 2.51 µM
- Emax (HepG2 cells [11]; HepG2, read-out: MMP assays efficacy (%) HepG2): 131%
- ATP (HepG2, galactose) IC50 (HepG2 cells [12]): Inactive
- ATP (HepG2, glucose) IC50 (HepG2 cells [12]): Inactive
